Columns and labels:
[1] = tested on: JNK1/2/3; assay: Western blot, JNK1/2/3 P54 and p46 isoforms; type: cell-based, human; conditions: 10 μM, 2 days
Procedure: HepG2 cells were seeded into a 6-well plate at 400,000 cells per well. After treatment with 10 μM of JNK-IN-5A and its derivatives for two days, lysates were harvested with CelLytic M (C2978, Sigma-Aldrich). […] SDS PAGE were performed using Mini-PROTEAN® TGX™ Precast Gels (Bio-Rad) and transferred using Trans-Blot® Turbo™ Transfer System (Bio-Rad). […] ImageQuantTMLAS 500 (29-0050-63, GE) was used to detect protein bands.

[2] = In vivo toxicological study in rats: haematology; design: species or system rats of the Wistar strain
Procedure: Forty-two male and forty-two female rats of the Wistar strain were allocated to the study. Three groups of three males and three females were given doses of 30, 100 and 300 mg/kg of target compounds (Table 8). The vehicle was 1.5 w/w % HPMC, 1.5 w/w % PS80 in 10 mM PBS, pH 7 and dose volume were 5 mL/kg. The animals were acclimatised at least 14 day prior to the study and exposed to a 12 hours light, 12 hours dark light cycle. The formulations were administered via oral gavage. Administration occurred once daily in the morning for seven consecutive days. Blood for scheduled haematology and plasma chemistry were taken at necropsy. For plasma chemistry, 0.6 ml blood (lithium heparin) per animal and for haematology, 0.5 ml blood (K2EDTA) per animal. The blood and plasma were analysed using Exigo analyzer and Vetscan equipment. Blood was analysed within 60 min of sampling. On the morning of analysis, the Exigo analyzer was checked against a reference sample provided by the manufacturer, and a control sample analysis cycle was performed (Table 9).

[3] = female, 30 mg/kg oral daily 7 d
[4] = female, 100 mg/kg oral daily 7 d
[5] = female, 300 mg/kg oral daily 7 d

Compound: N#Cc1c(NC(=O)c2cccc3ccccc23)sc2c1CCCC2 [JNK-IN-5A, N-(3-cyano-4,5,6,7-tetrahydrobenzo[b]thiophen-2-yl)-1-naphthamide]
- JNK1/2/3 p46 expression [1]: 0.88 times

Compound: COc1ccccc1NC(=O)N1CCc2c(sc(NC(=O)c3cccc4ccccc34)c2C#N)C1 [PKL-A152]
- GRAN [2, 3]: 1.00 10^9/l
- HCT [2, 3]: 41.5%
- HGB [2, 3]: 14.1 g/dL
- LYM [2, 3]: 5.6 10^9/l
- MCH [2, 3]: 19.5 pg
- MCHC [2, 3]: 34.1 g/dL
- MCV [2, 3]: 57.2 fL
- MONO [2, 3]: 0.17 10^9/l
- PLT [2, 3]: 1089 10^9/l
- RBC [2, 3]: 7.24 10^12/l
- RDW % [2, 3]: 13.9%
- WBC [2, 3]: 6.8 10^9/l
- GRAN [2, 4]: 1.20 10^9/l
- HCT [2, 4]: 42.0%
- HGB [2, 4]: 14.3 g/dL
- LYM [2, 4]: 5.7 10^9/l
- MCH [2, 4]: 19.5 pg
- MCHC [2, 4]: 34 g/dL
- MCV [2, 4]: 57.4 fL
- MONO [2, 4]: 0.17 10^9/l
- PLT [2, 4]: 1122 10^9/l
- RBC [2, 4]: 7.32 10^12/l
- RDW % [2, 4]: 14.0%
- WBC [2, 4]: 7.1 10^9/l
- GRAN [2, 5]: 1.03 10^9/l
- HCT [2, 5]: 42.9%
- HGB [2, 5]: 14.7 g/dL
- LYM [2, 5]: 4.8 10^9/l
- MCH [2, 5]: 19.7 pg
- MCHC [2, 5]: 34.1 g/dL
- MCV [2, 5]: 57.7 fL
- MONO [2, 5]: 0.23 10^9/l
- PLT [2, 5]: 1062 10^9/l
- RBC [2, 5]: 7.43 10^12/l
- RDW % [2, 5]: 14.1%
- WBC [2, 5]: 6.0 10^9/l
- GRAN ([2]; male, 30 mg/kg oral daily 7 d): 1.50 10^9/l
- HCT ([2]; male, 30 mg/kg oral daily 7 d): 46.3%
- HGB ([2]; male, 30 mg/kg oral daily 7 d): 15.6 g/dL
- LYM ([2]; male, 30 mg/kg oral daily 7 d): 5.9 10^9/l
- MCH ([2]; male, 30 mg/kg oral daily 7 d): 19.6 pg
- MCHC ([2]; male, 30 mg/kg oral daily 7 d): 33.8 g/dL
- MCV ([2]; male, 30 mg/kg oral daily 7 d): 58.0 fL
- MONO ([2]; male, 30 mg/kg oral daily 7 d): 0.23 10^9/l
- PLT ([2]; male, 30 mg/kg oral daily 7 d): 922 10^9/l
- RBC ([2]; male, 30 mg/kg oral daily 7 d): 7.97 10^12/l
- RDW % ([2]; male, 30 mg/kg oral daily 7 d): 14.2%
- WBC ([2]; male, 30 mg/kg oral daily 7 d): 7.7 10^9/l
- GRAN ([2]; male, 100 mg/kg oral daily 7 d): 1.47 10^9/l
- HCT ([2]; male, 100 mg/kg oral daily 7 d): 44.7%
- HGB ([2]; male, 100 mg/kg oral daily 7 d): 15.1 g/dL
- LYM ([2]; male, 100 mg/kg oral daily 7 d): 6.9 10^9/l
- MCH ([2]; male, 100 mg/kg oral daily 7 d): 19.8 pg
- MCHC ([2]; male, 100 mg/kg oral daily 7 d): 33.8 g/dL
- MCV ([2]; male, 100 mg/kg oral daily 7 d): 58.8 fL
- MONO ([2]; male, 100 mg/kg oral daily 7 d): 0.17 10^9/l
- PLT ([2]; male, 100 mg/kg oral daily 7 d): 990 10^9/l
- RBC ([2]; male, 100 mg/kg oral daily 7 d): 7.63 10^12/l
- RDW % ([2]; male, 100 mg/kg oral daily 7 d): 14.6%
- WBC ([2]; male, 100 mg/kg oral daily 7 d): 8.5 10^9/l
- GRAN ([2]; male, 300 mg/kg oral daily 7 d): 1.17 10^9/l
- HCT ([2]; male, 300 mg/kg oral daily 7 d): 45.6%
- HGB ([2]; male, 300 mg/kg oral daily 7 d): 15.4 g/dL
- LYM ([2]; male, 300 mg/kg oral daily 7 d): 5.8 10^9/l
- MCH ([2]; male, 300 mg/kg oral daily 7 d): 19.7 pg
- MCHC ([2]; male, 300 mg/kg oral daily 7 d): 33.8 g/dL
- MCV ([2]; male, 300 mg/kg oral daily 7 d): 58.4 fL
- MONO ([2]; male, 300 mg/kg oral daily 7 d): 0.17 10^9/l
- PLT ([2]; male, 300 mg/kg oral daily 7 d): 1046 10^9/l
- RBC ([2]; male, 300 mg/kg oral daily 7 d): 7.80 10^12/l
- RDW % ([2]; male, 300 mg/kg oral daily 7 d): 14.4%
- WBC ([2]; male, 300 mg/kg oral daily 7 d): 7.2 10^9/l

Reference: patent publication US20260234159A1, “SMALL MOLECULE TREATMENT OF FATTY LIVER DISEASE AND HCC” (SCANDIEDGE THERAPEUTICS AB, priority 2023, published 2026)
